| SMILES | melting point |
| --- | --- |
| O=C(NC1CCCOC1)c1ccc2nonc2c1 (configuration not stated) | 204 to 205 °C |
| CCOC(=O)c1ccc(-c2ccc(OCCNC3CC3)c(-c3ccc4c(c3)C(C)(C)CCC4(C)C)c2)cc1 | 141 °C |
| COc1cc(CNC(=S)NC(COC(=O)C(C)(C)C)Cc2ccc(C)c(C)c2)ccc1O (configuration not stated) | 43 to 48 °C |
| CC(C)C(c1cncnc1C#N)N(C)C(=O)Cc1ccccc1 (configuration not stated) | 80 to 81 °C |
| C[Si]1(C)CCCCCCCCCC[Si](C)(C)O[Si](C)(C)CCCCCCCCCC[Si](C)(C)O1 | 90 °C |
| O=C(O)C1CCN2c3ccccc3Cc3ccccc3C2C1 (configuration not stated) | 207 to 209 °C |
| Cc1c(N)cc(C)c2c(=O)[nH]ccc12 | 242 °C |
| CC(=O)N[C@@H](CSC(C)=O)C(=O)NCCSC(=O)C(C)C | 115 to 117 °C |
| Cn1nnn(-c2c(Cl)ccc(C(=O)O)c2Cl)c1=O | 221 to 225 °C |
| CCC(CC)n1cnc2c(Oc3c(C)cc(C)cc3C)nc(C)cc21 | 127 to 131 °C |
| O=C(NCc1ccccc1)c1ccnc(-n2ccc(OCc3ccccc3)cc2=O)c1 | 158 to 161 °C |
| COCCN1Cc2c(cnc3c(NC(=O)c4c(Cl)cccc4Cl)cccc23)C1=O | 246 °C |
| COc1ccccc1C(=O)N1CCN(C(=O)CN2CCC(O)(c3ccccc3)CC2)C(c2ccc(Cl)c(Cl)c2)C1 (racemic) | 112 to 114 °C |
| CCCN1N=C2C(=Cc3ccccc3)CS(=O)CC2C1c1ccccc1 (configuration not stated) | 164 to 166 °C |
| CCOC(=O)C1=C(C)NC(C)=C(C(=O)OCC)C1c1ccccc1C | 128 to 130 °C |
| COc1ccc(C2SCCCS2)cc1 | 117 to 119 °C |
| COC1CN(CCC(C(=O)N(C)C)(c2ccccc2)c2ccccc2)CCC1NC(=O)c1ccccc1 (configuration not stated) | 147 °C |
| COCc1cccc(OCCc2cnc(S)[nH]c2=O)c1 | 117 to 119 °C |
| CCC(=O)c1cnccn1 | 46 to 47 °C |
| COC(=O)c1cc(Cl)c(-n2[nH]c(N)cc2=O)c(Cl)c1 | 225 to 229 °C |
| COc1ccccc1CNC(=O)c1ccc2nc(NCc3ccccc3OC)ccc2c1 | 108 °C |

| SMILES | melting point |
| --- | --- |
| COc1ccc(C=O)c(OC)c1Br | 80 °C |
| CCCC(CCC)n1nnc2c(Cl)nc(C)cc21 | 90 to 91 °C |
| CC[C@@H](C(N)=O)n1nnc2cc(Br)ccc21 | 205 to 207 °C |
| CC(C)(COC(=O)c1cc(Cl)c(O)c(Cl)c1)COC(=O)c1cc(Cl)c(O)c(Cl)c1 | 180 to 181 °C |
| COc1ccc(C(=O)c2cc(C(=O)c3ccc(OC)cc3)cc(C(=O)c3ccc(OC)cc3)c2)cc1 | 179 to 183 °C |
| CCNC(=O)N1c2ccccc2CCC1CN1CCN(c2cccc3[nH]ccc23)CC1 (configuration not stated) | 109 to 112 °C |
| CCc1c(C(=O)C(N)=O)c2c(OCC(=O)NOC(C)(C)C)cccc2n1Cc1ccccc1 | 203 to 205 °C |
| CCNC(=O)c1ccc(CCN2CC=C(c3c[nH]c(-c4ccc(F)cc4)c3-c3ccncc3)CC2)cc1 | 228 to 230 °C |
| Nc1ccc(OCC(O)CN2CCN(c3ccccc3C(=O)O)CC2)cc1 (configuration not stated) | 260 to 263 °C |
| O=C(CS(=O)c1ccc(Cl)cc1)c1ccccc1 (configuration not stated) | 129 to 130 °C |
| CCOC(=O)CNc1ccccc1C(N)=O | 147 to 148 °C |
| N#CCOc1cc2c(cc1C#Cc1ccccc1)NC(=O)CC(c1cccc(C#N)c1)=N2 | 212 °C |
| COC(=O)c1ccc(SC)c([N+](=O)[O-])c1 | 118 to 120 °C |
| Nc1ccc(C#CCCN2CC=C(c3ccccc3)CC2)nc1 | 136 to 137 °C |
| Oc1cc2c3ccc(O)c(O)c3n(CCCc3ccccc3)c2cc1O | 246 to 252 °C |
| COc1ccc(CN(C)CCCOc2ccc(NC(=O)c3cccc4c(=O)c5cccc(C)c5[nH]c34)c(C)c2)cc1OC | 146 °C |
| NCC(O)c1cc(Cl)cc(Cl)c1 (configuration not stated) | 66 °C |
| O=C(NC1CCS(=O)(=O)CC1)NC12CC3CC(CC(C3)C1)C2 | 244 to 246 °C |
| COc1ncc([N+](=O)[O-])c(OC)n1 | 92 to 93 °C |
| CCC1(C)CC(NC(=O)c2ccccc2)C(C)C(C)(CC)N1Cc1ccccc1 (configuration not stated) | 173 to 176 °C |
| CCNC(=O)c1c(Cl)ccc(N(C)C)c1[Si](C)(C)C | 179 to 180 °C |

| SMILES | melting point |
| --- | --- |
| COC(=O)CCc1ccc(OCC2CCN(c3ccncc3)CC2)cc1 | 96.5 to 98.5 °C |
| NC1CCN(c2nc3c(cc2F)c(=O)c(C(=O)O)cn3CCF)C1 (configuration not stated) | 251 to 255 °C |
| CC(C(=O)O)c1ccc2c(c1)C(=O)Cc1ccccc1S2 (configuration not stated) | 130 to 132 °C |
| COc1cc(C(C#Cc2cnc(N)nc2N)OC)cc(OC)c1OC (configuration not stated) | 184 to 186 °C |
| Cc1cc2c(c3oc4ccccc4c(=O)c13)CC(C(=O)O)O2 (configuration not stated) | 231 to 234 °C |
| CCN(CC)c1ccc2c(c1)Oc1cc(N(Cc3ccccc3)C(C)=O)c3ccccc3c1N2C(C)=O | 202 to 204 °C |
| CCN(CC)Cc1cc(C(N)=O)cc(Br)c1N | 140 to 142 °C |
| CCOC(=O)Cc1ccc(NC(=O)N2CCn3c(c(C(N)=O)c(C#N)c3C3CC3)C2)cc1 | 263 to 264 °C |
| COc1ncnc2c(Cl)c(NC(=S)NCCN)ccc12 | 230 to 232 °C |
| O=[N+]([O-])c1ccc(F)nc1Nc1ccc2c(c1)OCO2 | 161 to 162 °C |
| O=S(=O)(c1ccccc1)C1C2CCC(C2)C1Br (configuration not stated) | 108 to 110 °C |
| O=C(O)COc1cccc(CN2C(=O)C3(COc4cc5c(cc43)CCO5)c3ccccc32)c1 (configuration not stated) | 95 to 96 °C |
| CCCCCCN(Cc1ccccc1)Cc1nc(-c2ccc(-c3ccccc3)cc2)c[nH]1 | 120 to 122 °C |
| COc1cc(-c2csc(N(CCC3CCCCC3)C(=O)c3cc4ccccc4n3CC(=O)O)n2)c(OC)cc1C | 198 °C |
| CCOC(=O)C(=CNc1cccc(-c2ccncc2)c1)C(C)=O | 107 to 108 °C |
| CCCCCCCCCCOC(=O)C1=C(C)NC(N)=C(C(=O)OCC)C1c1cccc([N+](=O)[O-])c1 (configuration not stated) | 190 to 191 °C |
| CC1(c2c[nH]cn2)CCCCC1 | 73 to 75 °C |
| CCCc1c(OCCCCCOc2coc(CO)cc2=O)ccc(C(C)=O)c1O | 94 to 95 °C |
| CCCCOc1c(CNC(=O)OC(C)(C)C)n(CC(C)C)c(=O)c2ccc(-c3nnn[nH]3)cc12 | 152 to 153 °C |
| COC(=O)NNc1ccc(C)c2c1OC(C)C2 (configuration not stated) | 62 to 65 °C |
| O=C1N(c2ccc(Br)cc2)C(Cl)(Cl)C2CCCCC12Cl (configuration not stated) | 148 to 150 °C |

Next, values leading:

| melting point | SMILES |
| --- | --- |
| 106 °C | CCOC(=O)C(C)(Cc1ccc(OCCN2CCCCC2)cc1)S(=O)(=O)c1ccc(OC)cc1 (configuration not stated) |
| 174 to 175 °C | CCOCCNC(=O)c1cc(C(=O)OC)c(O)c2ncc(Cc3ccc(F)cc3)cc12 |
| 209 °C | CC(C)(N)c1ccc(-c2nc(Nc3cccc(F)c3)ncc2C#N)cc1 |
| 259 °C | O=C(Nc1nc(C(F)(F)F)co1)C1c2cc(F)ccc2Oc2ccc(F)cc21 |
| 180 to 182 °C | FC(F)(F)c1ccc(Nc2nc3ccccc3o2)cc1 |
| 225 to 227 °C | CNc1nc(-c2cccc(-c3cncc(OC)c3)c2)c2cc(OC)c(OC)cc2n1 |
| 108 to 111 °C | COC(=O)C(N)Cc1ccc(OCc2nc3ccc(OC)cc3n2C)cc1 (configuration not stated) |
| 253 to 254 °C | O=c1nc(-c2cccc(-n3cccn3)n2)sc2ccccc12 |
| 143 to 145 °C | CS(=O)(=O)c1ccc(-n2nc(C(F)(F)F)nc2-c2ccc(Br)cc2)nc1 |
| 152 to 154 °C | CC(=O)SC(C(=O)c1ccccc1)C(C)C(=O)N1C(c2cccc(C(F)(F)F)c2)SC[C@H]1C(=O)O (some centres not stated) |
| 283 to 286 °C | CN(C)CCn1c2ccc(O)cc2c2c3c(c(-c4ccccc4)cc21)C(=O)NC3=O |
| 211 to 214 °C | O=C(c1ccc(Nc2ccnc3cc(C(F)(F)F)ccc23)cc1)N1CCC(Sc2ccc(F)cc2)CC1 |
| 59 to 60 °C | CC(=O)Oc1c(C)sc2ccc(C(F)(F)F)cc12 |
| 123 to 124 °C | COc1cc(OC)nc(SCc2nc(C(F)(F)F)ccc2C(=O)O)n1 |
| 108 to 109 °C | COCOc1ccc(CCCOc2nn(Cc3ccccc3)cc2CC(=O)O)c(Oc2ncc(C(F)(F)F)cc2Cl)c1 |
| 68 to 70 °C | CCOC(=O)c1cccc(Cn2cnc3ccccc32)c1 |
| 210 to 214 °C | Cc1c(S(C)=O)c(C=NO)nn1-c1c(Cl)cc(C(F)(F)F)cc1Cl (configuration not stated) |

| melting point | SMILES |
| --- | --- |
| 171 to 173 °C | Cc1nnc2ccc(-c3cccc(N(C)C(=O)C4CCC4)c3)nn12 |
| 143 to 145 °C | O=C(O)Cc1ccc(-c2ccc(F)cc2F)cc1 |
| 152 to 154 °C | COc1ccc(CC(SC)C(N)=O)cc1C(=O)NCc1ccc(C(F)(F)F)cc1 (configuration not stated) |
| 222 to 224 °C | CC(C)n1nc(-c2c(NCCO)nc(N)nc2-c2ccccc2)ccc1=O |
| 211 to 213 °C | CN(C)CCCN=C1CC(c2ccc(C(F)(F)F)cc2)Cc2[nH]c3ccc(Cl)cc3c(=O)c21 (configuration not stated) |
| 196 to 198 °C | O=C(Nc1cccc2cc(Br)cnc12)C1c2ccccc2-c2ccccc21 |
| 210 to 212 °C | COc1ccc(-c2nc(N3CCNCC3)c3c(C)c(C#N)sc3n2)cc1 |
| 216 to 217 °C | COc1ccc(COC(=O)C2N3C(=O)C(N4C(=O)c5ccccc5C4=O)C3SCC2(C)O)cc1 (configuration not stated) |
| 143 to 147 °C | CS(=O)(=O)c1ccc(-c2ncccc2C(=O)c2ccccn2)cc1 |
| 113 to 118 °C | Cc1cc(NCc2ccc(Oc3ccc4ncc([N+](=O)[O-])n4n3)c(OCC3CC3)c2)nc(C)n1 |
| 168 to 171 °C | Cc1cc(OCC(=O)O)c(C(C)C)cc1SCc1sc(-c2ccc(C(F)(F)F)cc2)nc1C |
| 162 to 163 °C | O=C(O)CCc1cn(Cc2ccc(OCc3ccc(-c4ccccc4)cn3)cc2)nc1-c1ccc(F)cc1 |
| 119 to 120 °C | COc1ccc2[nH]cc(CC(=O)N3CCN(c4ccc(N)cc4)CC3)c2c1 |
| 300 to 305 °C | O=C(O)c1cccc(-n2c(=O)c3c(Cc4ccccc4)n[nH]c3c3cccnc32)c1 |
| 172 to 174 °C | CCOC(=O)Cn1nc(-c2ccccc2O)nc1-c1ccccc1O |
| 204 °C | CCc1ccnc(C(=O)c2[nH]c3ccc(C(F)(F)F)cc3c2CC(=O)O)c1 |
| 165 °C | CCOc1ccc2c(c1)n(C1CCCCC1)c(=O)n2Cc1ccc(S(=O)(=O)NC(C)(C)CC)cc1 |

Reference: a melting point compilation (Tetko et al.; mined from patent text by program, amines drawn as free bases though some values may be those of a salt)
